Among the data in patent US20260347372A1, “SMALL MOLECULE INHIBITORS OF KRAS G12D MUTANT” (MERCK SHARP & DOHME LLC, priority 2023, published 2026) are IC50 values, retold here.

One assay concerns the target KRAS G12D (Homo sapiens, UniProt P01116, G12D). Kind of assay: SOS-catalyzed nucleotide exchange assay, KRAS G12D (Procedure A). The assay is classed as biochemical. The following applies: guanine nucleotide exchange (GNE). The essentials:
(§1)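 Compounds in 10-point 3-fold series sat 60 min with biotin-KRAS/Bodipy-GDP/Tb-streptavidin complex, then human SOS and 3 mM GTP were added. G13D: 1.25 nM KRAS, no SOS, 30 min. WT and G12D: 1 nM with 40 nM SOS, 60 min. G12C (C51S/C80L/C118S): 3 nM/40 nM, 60 min. Curves fitted from normalised TR-FRET 520/495 ratio.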

A further assay deals with KRAS G12C (Homo sapiens, UniProt P01116, C118S/C51S/C80L/G12C). Kind of assay: SOS-catalyzed nucleotide exchange assay, KRAS G12C (Procedure A). The following applies: GNE. The class given is biochemical. The source says: (§2) Procedure for SOS-Catalyzed Nucleotide Exchange Assay for KRAS-WT, G12C/D/V, G13D, HRAS, and NRAS (Procedure A)
KRAS G12C, sequence (P01116 with tags, fused parts or gaps isoform P01116-2 G12C/C51S/C80L/C118S): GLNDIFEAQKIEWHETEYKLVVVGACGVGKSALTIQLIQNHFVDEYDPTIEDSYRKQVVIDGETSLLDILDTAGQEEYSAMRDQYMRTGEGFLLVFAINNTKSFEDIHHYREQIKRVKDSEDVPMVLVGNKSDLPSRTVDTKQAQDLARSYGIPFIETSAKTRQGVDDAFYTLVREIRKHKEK
(§3) Recombinant KRAS-G12C protein used in this assay has an additional triple mutation (C51S/C80L/C118S). Whereas KRAS-WT, G12D/V, G13D, HRAS and NRAS are in context of their WT protein sequence background. Specifically, the SOS-catalyzed nucleotide exchange assay utilizes a preformed TR-FRET complex containing a specific biotinylated RAS protein (KRAS-WT, G12C/V/D, G13D, HRAS, NRAS; described above) with Bodipy-GDP, and Terbium-streptavidin. Compounds are preincubated with this complex for 60 minutes. Subsequently, recombinant human SOS protein and unlabeled GTP are added to initiate the exchange reaction. Small molecule inhibitors stabilize the Bodipy-GDP complex whereas the untreated protein rapidly exchanges Bodipy-GDP for unlabeled GTP resulting in reduced TR-FRET signal.
(§4) To assemble the preformed TR-FRET complexes, each biotinylated RAS protein is diluted to 2 μM in an EDTA Buffer (20 mM HEPES pH 7.5, 50 mM sodium chloride, 10 mM EDTA, and 0.01% Tween) and incubated at room temperature for one hour. This mixture is then further diluted to 90 nM in an Assay Buffer (20 mM HEPES pH 7.5, 150 mM sodium chloride, 10 mM magnesium chloride, and 0.005% Tween) containing 15 nM of Terbium-Streptavidin (Invitrogen, catalog #PV3577) and 900 nM of Bodipy-GDP (Invitrogen, catalog #G22360) and incubated at room temperature for six hours. It should be noted that this preformed TR-FRET complex for each of the RAS protein were made ahead of time, aliquoted and stored at −80° C. until the day of the experiment.
(§5) Each test compound (10 mM stock in DMSO) is diluted in DMSO to make a final-10-point, 3-fold dilution and is acoustically dispensed into a 384-well assay plate (Corning, catalog #3820) using an Echo 550 (Labcyte). Each well of the assay plate receives 3 μL of a specific 3×RAS preformed TR-FRET complex and 3 μL of Assay Buffer and is incubated at room temperature for 60 minutes (preincubation time). Each well then receives 3 μL of 3× recombinant human SOS protein and GTP (Sigma, G8877) in Assay Buffer and is incubated at room temperature for 30 minutes (G13D), 60 minutes (KRAS WT/G12C/D, H/NRAS) or 90 minutes for G12V. The final reaction in each well of 9 μL consists of 3 mM GTP, specific Ras and SOS proteins in the following concentrations: KRAS-G12C/SOS=3 nM/40 nM, KRAS-WT and G12D/SOS=1 nM/40 nM, KRAS-G12V/SOS=1.25 nM/160 nM, KRAS-G13D/SOS=1.25 nM/0 nM, HRAS and NRAS=1.25 nM/40 nM.
(§6) The time-resolved fluorescence resonance energy transfer (TR-FRET) signal is measured on an Envision (PerkinElmer) plate reader: Excitation filter=340 nm; emission1=495 nm; emission2=520 nm; dichroic mirror=D400/D505; delay time=[…]. The signal of each well is determined as the ratio of the emission at 520 nm to that at 495 nm. Percent effect of each well is determined after normalization to control wells containing DMSO (no effect) or a saturating concentration of inhibitor (max effect). The apparent effect as a function of compound concentration is fit to a four-parameter logistic equation.
(§7) For Example No. 14, nucleotide exchange assays for KRAS G12D, WT, G12C, and G12V were performed according to Procedure B. All the other compounds were tested according to Procedure A.

Another assay concerns the target KRAS G12V (Homo sapiens, UniProt P01116, G12V). Kind of assay: SOS-catalyzed nucleotide exchange assay, KRAS G12V (Procedure A). The class given is biochemical. The following applies: GNE. The essentials: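 Biotinylated KRAS G12V was loaded with Bodipy-GDP alongside Terbium-streptavidin to form a TR-FRET complex, which was preincubated with compounds for 60 minutes in 384-well plates. Human SOS protein and unlabeled GTP were then added for 90 minutes, giving final concentrations of 1.25 nM KRAS-G12V, 160 nM SOS and 3 mM GTP. The 520/495 nm emission ratio was read on an Envision.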

Another assay deals with KRAS WT (Homo sapiens, UniProt P01116). Kind of assay: SOS-catalyzed nucleotide exchange assay, KRAS WT (Procedure A). The class given is biochemical. The following applies: GNE. The essentials: as §1
KRAS WT, sequence (P01116 with tags, fused parts or gaps isoform P01116-2): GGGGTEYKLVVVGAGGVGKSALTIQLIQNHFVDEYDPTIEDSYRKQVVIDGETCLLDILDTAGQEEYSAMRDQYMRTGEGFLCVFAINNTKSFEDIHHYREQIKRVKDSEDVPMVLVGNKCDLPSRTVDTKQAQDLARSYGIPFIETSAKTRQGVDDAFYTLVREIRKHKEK
The target of the next assay is T1, AsPC-1 cells (Homo sapiens, UniProt P01116, G12D).
T1 construct: p-ERK/total ERK AlphaSureFire read-out
T1 sequence (P01116 1-188 isoform P01116-2 G12D): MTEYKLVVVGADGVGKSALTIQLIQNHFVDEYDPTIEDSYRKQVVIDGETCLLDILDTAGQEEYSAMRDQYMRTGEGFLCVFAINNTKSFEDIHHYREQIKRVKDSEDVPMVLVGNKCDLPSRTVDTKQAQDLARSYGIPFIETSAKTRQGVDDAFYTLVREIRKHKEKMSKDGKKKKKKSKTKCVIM
Kind of assay: Cellular phospho-ERK assay, AsPC-1 cells (KRAS G12D). The assay is classed as cell-based. The following applies: 2 hours, read-out: AsPC1 pERK IC50. In outline: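 Compound was titrated 10-point in 3-fold steps (top 30 μM) on KRAS G12D homozygous pancreatic lines PANC08.13 and AsPC-1 for 2 h at 37 °C. The p-ERK/total ERK ratio was measured by multiplex AlphaLISA SureFire and fitted with a 4-parameter logistic model to give IC50.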

In a further assay the target is KRAS G13D (Homo sapiens, UniProt P01116, G13D). Briefly: SOS-catalyzed nucleotide exchange assay, KRAS G13D (Procedure A). The assay is classed as biochemical. The following applies: GNE.
KRAS G13D, sequence (P01116 with tags, fused parts or gaps isoform P01116-2 G13D): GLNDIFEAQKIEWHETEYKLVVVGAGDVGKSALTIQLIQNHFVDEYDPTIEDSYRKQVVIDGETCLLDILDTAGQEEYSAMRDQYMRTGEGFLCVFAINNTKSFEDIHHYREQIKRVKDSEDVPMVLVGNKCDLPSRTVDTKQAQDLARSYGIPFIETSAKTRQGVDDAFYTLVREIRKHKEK
Excerpt: as §2, §3, §4, §5, §6, §7

A further assay has as its target NRAS (Homo sapiens, UniProt P01111). Kind of assay: SOS-catalyzed nucleotide exchange assay, NRAS (Procedure A). The following applies: GNE. The class given is biochemical.
Excerpt: as §2, §3, §4, §5, §6, §7

Another assay concerns the target HRAS (Homo sapiens, UniProt P01112). Kind of assay: SOS-catalyzed nucleotide exchange assay, HRAS (Procedure A). The assay is classed as biochemical. The following applies: GNE.
Excerpt: as §2, §3, §4, §5, §6, §7

Bounds are passed on as bounds.

HRAS, sequence (P01112 with tags, fused parts or gaps): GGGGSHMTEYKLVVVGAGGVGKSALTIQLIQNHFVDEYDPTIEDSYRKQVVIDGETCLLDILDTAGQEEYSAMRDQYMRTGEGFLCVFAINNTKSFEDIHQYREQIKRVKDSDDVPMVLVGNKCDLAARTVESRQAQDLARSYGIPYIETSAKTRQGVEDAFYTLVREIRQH
KRAS G12D, sequence (P01116 with tags, fused parts or gaps isoform P01116-2 G12D): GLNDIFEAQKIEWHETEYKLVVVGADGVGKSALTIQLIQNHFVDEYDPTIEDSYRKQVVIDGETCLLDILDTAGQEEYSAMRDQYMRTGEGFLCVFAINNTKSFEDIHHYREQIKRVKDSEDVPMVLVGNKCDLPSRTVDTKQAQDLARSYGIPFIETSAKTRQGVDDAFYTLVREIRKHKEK
KRAS G12V, sequence (P01116 with tags, fused parts or gaps isoform P01116-2 G12V): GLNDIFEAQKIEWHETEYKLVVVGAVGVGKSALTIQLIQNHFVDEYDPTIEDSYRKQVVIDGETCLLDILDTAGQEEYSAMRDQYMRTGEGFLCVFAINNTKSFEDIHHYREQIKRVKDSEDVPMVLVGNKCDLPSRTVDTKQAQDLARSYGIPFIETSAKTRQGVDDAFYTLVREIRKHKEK
NRAS, sequence (P01111 with tags, fused parts or gaps): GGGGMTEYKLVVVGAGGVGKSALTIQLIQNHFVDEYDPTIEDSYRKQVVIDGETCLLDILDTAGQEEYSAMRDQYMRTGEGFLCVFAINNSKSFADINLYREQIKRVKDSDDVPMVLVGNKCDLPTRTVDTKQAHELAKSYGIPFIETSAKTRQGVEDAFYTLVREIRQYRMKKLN

What is called IC50 is the concentration at which inhibition is half-maximal. Turning to `CN(C)C[C@@]1(COc2nc(N3C[C@H]4CC[C@@H](C3)N4)c3c(n2)sc2c(-c4c(C5CC5)c(Cl)cc5[nH]ncc45)nccc23)CC1(F)F` [Ex-21, 1-((1R)-1-(((4-((1R,5S)-3,8-diazabicy-clo[3.2.1]octan-3-yl)-8-(6-chloro-5-cyclopropyl-1H-indazol-4-yl)pyrido [4′,3′:4,5]thieno [2,3-d]pyrimidin-2-yl)oxy)methyl)-2,2-difluoro-cyclopropyl)-N,N-dimethyl-methanamine], the IC50 on KRAS G12D was 0.00789 µM; against KRAS G12C, 0.457 µM; on KRAS G12V it was 5 µM; against KRAS WT, 2.8 µM; on AsPC-1 cells, 0.612 µM; on KRAS G13D, 0.486 µM. Moreover, the IC50 on NRAS and against HRAS was above 11.1 µM in each case.

With `OC1C2CCCC1(COc1nc(N3C[C@H]4CC[C@@H](C3)N4)c3c(n1)sc1c(-c4c(C5CC5)c(Cl)cc5[nH]ncc45)nccc13)CC2` (stereo partly drawn) [Ex-24, 1-(((4-((1R,5S)-3,8-diazabicy-clo[3.2.1]octan-3-yl)-8-(6-chloro-5-cyclopropyl-1H-indazol-4-yl)pyri-do[4′,3′:4,5]thi-eno[2,3-d]pyrimidin-2-yl)oxy)methyl)bi-cyclo[3.2.1]oc-tan-8-ol], the IC50 was 5.23 µM on KRAS G12D; above 11.1 µM against KRAS G12C; above 11.1 µM on KRAS G12V; above 11.1 µM against KRAS WT; 18.4 µM at AsPC-1 cells; above 11.1 µM against KRAS G13D. The IC50 on NRAS and against HRAS was above 11.1 µM in each case.

`C#Cc1csc2cc3[nH]ncc3c(-c3nccc4c3sc3nc(OC[C@@]56CCCN5C[C@H](F)C6)nc(N5C[C@H]6CC[C@@H](C5)N6)c34)c12` [Ex-54, 4-((1R,5S)-3,8-diazabicyclo[3.2.1]octan-3-yl)-8-(5-ethynyl-1H-thieno[3,2-f]indazol-4-yl)-2-(((2R,7aS)-2-fluorotetrahydro-1H-pyrrolizin-7a(5H)-yl)methoxy)pyrido[4′,3′:4,5]thieno[2,3-d]pyrimidine]: the IC50 against KRAS G12D came to 0.00192 µM; against KRAS G12C, 0.0227 µM; on KRAS G12V it was 0.0627 µM; on KRAS WT, 0.0807 µM; at AsPC-1 cells, 0.0314 µM; against KRAS G13D, 0.0148 µM. In addition, the half-inhibitory concentration (IC50) against NRAS and on HRAS was above 11.1 µM in each case.

Turning to `Cc1cc2[nH]ncc2c(-c2nccc3c2sc2nc(OC[C@H]4C[C@H](S(C)(=N)=O)C4)nc(N4C[C@H]5CC[C@@H](C4)N5)c23)c1C(F)(F)F` (stereo partly drawn) [Ex-35, (1S)-((1R,3S)-3-(((4-((1R,5S)-3,8-diazabicyclo[3.2.1]octan-3-yl)-8-(6-methyl-5-(trifluoromethyl)-1H-indazol-4-yl)pyrido[4′,3′:4,5]thieno[2,3-d]pyrimidin-2-yl)oxy)methyl)cyclobutyl)(imino) (methyl)-λ^6-sulfanone], the IC50 was 1.43 µM against KRAS G12D; above 11.1 µM on KRAS G12C; above 11.1 µM against KRAS G12V; above 11.1 µM at KRAS WT; above 30 µM at AsPC-1 cells; above 11.1 µM at KRAS G13D. Further, the 50% inhibitory concentration (IC50) against NRAS and at HRAS was above 11.1 µM throughout.

Regarding `Cc1cc2[nH]ncc2c(-c2nccc3c2sc2nc(OC[C@@]45CCCN4C[C@H](F)C5)nc(N4C[C@H]5CC[C@@](C)(C4)N5)c23)c1C(F)(F)F` [Ex-76, 2-(((2R,7aS)-2-fluorotetrahydro-1H-pyrrolizin-7a(5H)-yl)methoxy)-8-(6-methyl-5-(trifluoromethyl)-1H-indazol-4-yl)-4-((1S,5R)-1-methyl-3,8-diazabicyclo[3.2.1]octan-3-yl)pyrido[4′,3′:4,5]thieno[2,3-d]pyrimidine], the IC50 on KRAS G12D was 0.0263 µM; against KRAS G12C it was 1.04 µM; against KRAS G12V it was 6.35 µM; against KRAS WT it was 8.27 µM; at AsPC-1 cells it was 0.397 µM; at KRAS G13D, 1.81 µM. Moreover, the 50% inhibitory concentration (IC50) against NRAS and at HRAS was above 11.1 µM each time.

For the molecule `Cc1cc2[nH]ncc2c(-c2nccc3c2sc2nc(OC[C@@]45CCCN4C[C@H](F)C5)nc(N4CCC5CCC(C4)N5)c23)c1C(F)(F)F` (stereo partly drawn) [Ex-72, 4-(3,9-diazabicyclo[4.2.1]nonan-3-yl)-2-(((2R,7aS)-2-fluorotetrahydro-1H-pyrrolizin-7a(5H)-yl)methoxy)-8-(6-methyl-5-(trifluoromethyl)-1H-indazol-4-yl)pyrido[4′,3′:4,5]thieno[2,3-d]pyrimidine], the half-inhibitory concentration (IC50) at KRAS G12D was 5.3 µM; against KRAS G12C, above 11.1 µM; on KRAS G12V, above 11.1 µM; on KRAS WT it was above 11.1 µM; on AsPC-1 cells, above 30 µM; on KRAS G13D, 2.62 µM. Besides, the IC50 against NRAS and against HRAS was above 11.1 µM throughout.

`Cc1cc2[nH]ncc2c(-c2nccc3c2sc2nc(OC[C@@]45CCCN4C[C@H](F)C5)nc(N4CC5COCC(C4)N5)c23)c1C(F)(F)F` [Ex-65, 7-(2-(((2R,7aS)-2-fluorotetrahydro-1H-pyrrolizin-7a(5H)-yl)methoxy)-8-(6-methyl-5-(trifluoromethyl)-1H-indazol-4-yl)pyrido[4′,3′:4,5]thieno[2,3-d]pyrimidin-4-yl)-3-oxa-7,9-diazabicyclo[3.3.1]nonane]: the IC50 on KRAS G12D is 0.128 µM; on KRAS G12C, 1.96 µM; against KRAS G12V it was above 11.1 µM; against KRAS WT, 8.79 µM; on AsPC-1 cells it was 1.7 µM; at KRAS G13D, 2.74 µM. Also, the IC50 at NRAS and at HRAS was above 11.1 µM each time.

As for `Cc1cc2[nH]ncc2c(-c2nccc3c2sc2nc(OCC4(C#N)CCCO4)nc(N4C[C@H]5CC[C@@H](C4)N5)c23)c1C(F)(F)F` (stereo partly drawn) [Ex-34, 2-(((4-((1R,5S)-3,8-diazabicyclo[3.2.1]octan-3-yl)-8-(6-methyl-5-(trifluoromethyl)-1H-indazol-4-yl)pyrido[4′,3′:4,5]thieno[2,3-d]pyrimidin-2-yl)oxy)methyl)tetrahydrofuran-2-carbonitrile], the IC50 against KRAS G12D is 6.7 µM; at KRAS G12C it was above 11.1 µM; at KRAS G12V, above 11.1 µM; against KRAS WT, above 11.1 µM; at AsPC-1 cells, above 30 µM; against KRAS G13D it was above 11.1 µM. Also, the IC50 on NRAS and on HRAS was above 11.1 µM each time.
